Experiments:
[1] = target: T1, HBV core protein (C-terminal truncated, 149 aa assembly domain) (Hepatitis B virus genotype D subtype adw, UniProt P03147, C107A/C48A/C61A); test: Biochemical capsid assembly assay (fluorescence quenching); details: BODIPY-FL labelled core protein, assembly started with NaCl, read after 6 min; read-out: Assembly Activity
T1 construct: The C-terminal truncated core protein containing 149 amino acids of the N-terminal assembly domain; made in house; host or cells: E. coli BL21 (DE3) Rosetta2, plasmid pET21b
T1 sequence (P03147 1-150, looked up, stated change not applied): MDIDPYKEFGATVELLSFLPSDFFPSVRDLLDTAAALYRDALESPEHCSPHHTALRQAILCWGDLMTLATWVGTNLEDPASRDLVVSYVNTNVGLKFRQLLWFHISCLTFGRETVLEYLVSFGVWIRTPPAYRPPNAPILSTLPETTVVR
Method: Biochemical Capsid Assembly Assay
The screening for assembly effector activity was done based on a fluorescence quenching assay published by Zlotnick et al. (2007). The C-terminal truncated core protein containing 149 amino acids of the N-terminal assembly domain fused to a unique cysteine residue at position 150 and was expressed in E. coli using the pET expression system (Merck Chemicals, Darmstadt). Purification of core dimer protein was performed using a sequence of size exclusion chromatography steps. In brief, the cell pellet from 1 L BL21 (DE3) Rosetta2 culture expressing the coding sequence of core protein cloned NdeI/XhoI into expression plasmid pET21b was treated for 1 h on ice with a native lysis buffer (Qproteome Bacterial Protein Prep Kit; Qiagen, Hilden). After a centrifugation step the supernatant was precipitated during 2 h stirring on ice with 0.23 g/ml of solid ammonium sulfate. Following further centrifugation the resulting pellet was resolved in buffer A (100 mM Tris, pH 7.5; 100 mM NaCl; 2 mM DTT) and was subsequently loaded onto a buffer A equilibrated CaptoCore 700 column (GE HealthCare, Frankfurt). The column flow through containing the assembled HBV capsid was dialyzed against buffer N (50 mM NaHCO3 pH 9.6; 5 mM DTT) before urea was added to a final concentration of 3M to dissociate the capsid into core dimers for 1.5 h on ice. The protein solution was then loaded onto a 1 L Sephacryl 5300 column. After elution with buffer N core dimer containing fractions were identified by SDS-PAGE and subsequently pooled and dialyzed against 50 mM HEPES pH 7.5; 5 mM DTT. To improve the assembly capacity of the purified core dimers a second round of assembly and disassembly starting with the addition of 5 M NaCl and including the size exclusion chromatography steps described above was performed. From the last chromatography step core dimer containing fractions were pooled and stored in aliquots at concentrations between 1.5 to 2.0 mg/ml at −80° C.
Immediately before labelling the core protein was reduced by adding freshly prepared DTT in a final concentration of 20 mM. After […] on ice storage buffer and DTT was removed using a Sephadex G-25 column (GE HealthCare, Frankfurt) and 50 mM HEPES, pH 7.5. For labelling 1.6 mg/ml core protein was incubated at 4° C. and darkness overnight with BODIPY-FL maleimide (Invitrogen, Karlsruhe) in a final concentration of 1 mM. After labelling the free dye was removed by an additional desalting step using a Sephadex G-25 column. Labelled core dimers were stored in aliquots at 4° C. In the dimeric state the fluorescence signal of the labelled core protein is high and is quenched during the assembly of the core dimers to high molecular capsid structures. The screening assay was performed in black 384 well microtiter plates in a total assay volume of 10 μl using 50 mM HEPES pH 7.5 and 1.0 to 2.0 μM labelled core protein. Each screening compound was added in 8 different concentrations using a 0.5 log-unit serial dilution starting at a final concentration of 100 μM, 31.6 μM or 10 μM, In any case the DMSO concentration over the entire microtiter plate was 0.5%. The assembly reaction was started by the injection of NaCl to a final concentration of […] which induces the assembly process to approximately 25% of the maximal quenched signal. 6 min after starting the reaction the fluorescence signal was measured using a Clariostar plate reader (BMG Labtech, Ortenberg) with an excitation of 477 nm and an emission of 525 nm. As 100% and 0% assembly control HEPES buffer containing 2.5 M and 0 M NaCl was used. Experiments were performed thrice in triplicates. EC50 values were calculated by non-linear regression analysis using the Graph Pad Prism 6 software (GraphPad Software, La Jolla, USA).

HBV = HBV replication assay: HBV DNA from the supernatants of HepAD38 cells; format: cell-based; details: Hepatitis B virus, 144 h, HBV DNA in supernatant by qPCR at day 6, read-out: Cell Activity
Method: Determination of HBV DNA from the Supernatants of HepAD38 Cells
The anti-HBV activity was analysed in the stable transfected cell line HepAD38, which has been described to secrete high levels of HBV virion particles (Ladner et al., 1997). In brief, HepAD38 cells were cultured at 37° C. at 5% CO2 and 95% humidity in 200 μl maintenance medium, which was Dulbecco's modified Eagle's medium/Nutrient Mixture F-12 (Gibco, Karlsruhe), 10% fetal bovine serum (PAN Biotech Aidenbach) supplemented with 50 μg/ml penicillin/streptomycin (Gibco, Karlsruhe), 2 mM L-glutamine (PAN Biotech, Aidenbach), 400 μg/ml G418 (AppliChem, Darmstadt) and 0.3 μg/ml tetracycline. Cells were subcultured once a week in a 1:5 ratio, but were usually not passaged more than ten times. For the assay 60,000 cells were seeded in maintenance medium without any tetracycline into each well of a 96-well plate and treated with serial half-log dilutions of test compound. To minimize edge effects the outer 36 wells of the plate were not used but were filled with assay medium. On each assay plate six wells for the virus control (untreated HepAD38 cells) and six wells for the cell control (HepAD38 cells treated with 0.3 μg/ml tetracycline) were allocated, respectively. In addition, one plate set with reference inhibitors like BAY 41-4109, entecavir, and lamivudine instead of screening compounds were prepared in each experiment. In general, experiments were performed thrice in triplicates. At day 6 HBV DNA from 100 μl filtrated cell culture supernatant (AcroPrep Advance 96 Filter Plate, […] Supor membran, PALL GmbH, Dreieich) was automatically purified on the MagNa Pure LC instrument using the MagNA Pure 96 DNA and Viral NA Small Volume Kit (Roche Diagnostics, Mannheim) according to the instructions of the manufacturer. EC50 values were calculated from relative copy numbers of HBV DNA In brief, 5 μl of the 100 μl eluate containing HBV DNA were subjected to PCR LC480 Probes Master Kit (Roche) together with 1 μM antisense primer […], 0.5 μM sense primer […], 0.3 μM hybprobes […]-FL and LC640-[…]-PH (TIBMolBiol, Berlin) to a final volume of […]. The PCR was performed on the Light Cycler 480 real time system (Roche Diagnostics, Mannheim) using the following protocol: Pre-incubation for 1 min at 95° C., amplification: 40 cycles×(10 sec at 95° C., 50 sec at 60° C., 1 sec at 70° C.), cooling for 10 sec at 40° C. Viral load was quantitated against known standards using HBV plasmid DNA of pCH-9/3091 (Nassal et al., 1990, Cell 63: 1357-1363) and the LightCycler 480 SW 1.5 software (Roche Diagnostics, Mannheim) and EC50 values were calculated using non-linear regression with GraphPad Prism 6 (GraphPad Software Inc., La Jolla, USA).

| SMILES | IC50 [1] | EC50 (HBV) |
| --- | --- | --- |
| CC1Cc2[nH]nc(-c3cscn3)c2CN1C(=O)c1cc2ccc(Cl)cn2c1 (stereo not shown) [Example 21, 6-chloro-2-[6-methyl-3-(1,3-thiazol-4-yl)-1H,4H,5H,6H,7H-pyrazolo[4,3-c]pyridine-5-carbonyl]indolizine] | 5 to 10 µM | < 1 µM |
| CC1Cc2[nH]nc(-c3cscn3)c2CN1C(=O)c1cc2cc(Cl)c(F)cn2c1 (stereo not shown) [Example 22, 7-chloro-6-fluoro-2-[6-methyl-3-(1,3-thiazol-4-yl)-1H,4H,5H,6H,7H-pyrazolo[4,3-c]pyridine-5-carbonyl]indolizine] | 5 to 10 µM | < 1 µM |
| CC1Cc2[nH]nc(-c3cscn3)c2CN1C(=O)c1cc2ccc(F)cn2c1 (stereo not shown) [Example 23, 6-fluoro-2-[6-methyl-3-(1,3-thiazol-4-yl)-1H,4H,5H,6H,7H-pyrazolo[4,3-c]pyridine-5-carbonyl]indolizine] | < 5 µM | < 1 µM |
| CC1Cc2[nH]nc(-c3cscn3)c2CN1C(=O)c1cc2c(F)cccn2c1 (stereo not shown) [Example 24, 8-fluoro-2-[6-methyl-3-(1,3-thiazol-4-yl)-1H,4H,5H,6H,7H-pyrazolo[4,3-c]pyridine-5-carbonyl]indolizine] | < 5 µM | < 1 µM |
| CC1Cc2[nH]nc(-c3cscn3)c2CN1C(=O)c1cc2c(C(F)(F)F)cccn2c1 (stereo not shown) [Example 25, 2-[6-methyl-3-(1,3-thiazol-4-yl)-1H,4H,5H,6H,7H-pyrazolo[4,3-c]pyridine-5-carbonyl]-8-(trifluoromethyl)indolizine] | 5 to 10 µM | < 1 µM |
| CC1Cc2[nH]nc(-c3cscn3)c2CN1C(=O)c1cc2ccccn2c1 (stereo not shown) [Example 26, 2-[6-methyl-3-(1,3-thiazol-4-yl)-1H,4H,5H,6H,7H-pyrazolo[4,3-c]pyridine-5-carbonyl]indolizine] | < 5 µM | < 1 µM |
| CC(NC(=O)c1noc2c1CN(C(=O)c1cc3ccccn3c1)CC2)C(F)(F)F (stereo not shown) [Example 51, 5-(indolizine-2-carbonyl)-N-(1,1,1-trifluoropropan-2-yl)-4H,5H,6H,7H-[1,2]oxazolo[4,5-c]pyridine-3-carboxamide] | < 5 µM | < 1 µM |
| CC(NC(=O)c1onc2c1CN(C(=O)c1cc3ccccn3c1)CC2)C(F)(F)F (stereo not shown) [Example 53, 5-(indolizine-2-carbonyl)-N-(1,1,1-trifluoropropan-2-yl)-4H,5H,6H,7H-[1,2]oxazolo[4,3-c]pyridine-3-carboxamide] | < 5 µM | < 1 µM |

— patent US20220227789A1, “NOVEL INDOLIZINE-2-CARBOXAMIDES ACTIVE AGAINST THE HEPATITIS B VIRUS (HBV)” (AiCuris GmbH & Co. KG, priority 2019, published 2022)
